Results from patent US20080249174A1, “Animal Model for Studying Atherosclerotic Lesions” (THE RESEARCH FOUNDATION OF STATE UNIVERSITY OF NEW YORK, priority 2005, published 2008).
Marks after values point to notes of the source that are not given here. Each block holds one molecule with its values, some of them ahead of it.

Columns and labels:
[1] = target: mouse Sptlc1 (serine palmitoyl-CoA transferase subunit 1) (mouse) (UniProt O35704); assay: cell-based or functional assay
[2] = target: T1, SPT (Mus musculus, UniProt O35704+P97363); assay: SPT activity in liver of myriocin-treated apoE KO mice; format: in vivo; conditions: myriocin 0.3 mg/kg intraperitoneally every other day for 8 weeks
T1 construct: myriocin treated mice had 50% less SPT activity in the liver than the controls; from tissue; host or cells: liver of apoE KO mice (The Jackson Laboratory) treated in vivo with myriocin
T1 sequence (O35704 1-473): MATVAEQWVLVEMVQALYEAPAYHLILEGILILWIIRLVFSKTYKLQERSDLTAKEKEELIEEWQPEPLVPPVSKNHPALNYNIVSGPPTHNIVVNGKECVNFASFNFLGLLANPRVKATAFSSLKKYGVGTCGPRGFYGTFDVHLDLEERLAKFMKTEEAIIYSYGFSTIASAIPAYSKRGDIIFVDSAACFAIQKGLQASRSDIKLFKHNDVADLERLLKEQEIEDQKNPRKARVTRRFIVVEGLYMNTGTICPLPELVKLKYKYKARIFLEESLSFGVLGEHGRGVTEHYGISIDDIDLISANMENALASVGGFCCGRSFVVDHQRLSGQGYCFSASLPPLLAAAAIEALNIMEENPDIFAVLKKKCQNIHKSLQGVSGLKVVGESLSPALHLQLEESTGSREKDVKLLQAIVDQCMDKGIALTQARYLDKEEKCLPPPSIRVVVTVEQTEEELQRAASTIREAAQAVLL
T1 sequence (P97363 1-560): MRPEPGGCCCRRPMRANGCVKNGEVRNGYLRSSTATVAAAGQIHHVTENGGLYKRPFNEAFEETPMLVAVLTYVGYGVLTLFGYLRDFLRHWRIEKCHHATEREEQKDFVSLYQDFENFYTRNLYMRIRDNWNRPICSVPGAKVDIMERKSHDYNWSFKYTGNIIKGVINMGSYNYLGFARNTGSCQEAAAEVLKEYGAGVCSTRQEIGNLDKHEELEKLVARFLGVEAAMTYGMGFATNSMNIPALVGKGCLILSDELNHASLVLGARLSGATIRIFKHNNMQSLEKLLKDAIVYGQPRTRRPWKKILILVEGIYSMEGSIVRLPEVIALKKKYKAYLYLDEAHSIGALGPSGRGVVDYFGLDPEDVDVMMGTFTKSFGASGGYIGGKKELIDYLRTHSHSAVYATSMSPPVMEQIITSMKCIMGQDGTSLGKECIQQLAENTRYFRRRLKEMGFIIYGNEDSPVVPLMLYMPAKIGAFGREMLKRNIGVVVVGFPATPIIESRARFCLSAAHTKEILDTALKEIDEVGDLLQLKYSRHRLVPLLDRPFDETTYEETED
T1 sequence (Q8R207 1-71 partner): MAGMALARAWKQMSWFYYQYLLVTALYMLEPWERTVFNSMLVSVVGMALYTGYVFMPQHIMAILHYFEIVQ
Procedure: Each mRNA level was expressed as a ratio to β-Actin mRNA. Liver tissues from Sptlc1 and Sptlc2-deficient, as well as wild type, mice were homogenized, and SPT activity was measured with ^3H-serine and palmitoyl-coenzyme A for substrates, as previously described (15).
(§1) Eight-week-old apoE KO micewere purchased from The Jackson Laboratory (Bar Harbor, Me.). Myriocin (0.3 mg/kg) (Biomol Research Laboratories Inc.) or phosphate buffered saline was injected intraperitoneally every other day for 8 weeks. The animals were on Purina Rodent Chow (catalog number 5001) or a high fat, high cholesterol diet (20% milk fat and 0.15% cholesterol; Harlan Teklad, Madison, Wis.).
In the present invention, two groups of 8-week-old apoE KO mice were utilized. Group 1 (n=7) and group 2 (n=7) animals were injected with 100 μl of myriocin (0.3 mg/kg) or phosphate-buffered saline, respectively, every other day for 8 weeks. As expected, myriocin treated mice had 50% less SPT activity in the liver than the controls.

[3] = system: apoE KO mice; assay: Plasma lipid measurement after myriocin administration; format: in vivo, mouse; conditions: for Plasma PC: PC = total phospholipid minus SM; for Plasma SM: n=7; for PC/SM ratio increased / plasma PC levels increased / plasma SM levels decreased: vs control; for PC/SM ratio increased / plasma PC levels increased: p<0.0001
Procedure: as §1
(§2) Fasting plasma was collected for fast protein liquid chromatography (FPLC) separation and lipid measurement. Total cholesterol, phospholipids and triglyceride inplasma, and lipoproteins were assayed by enzymatic methods (WakoPure Chemical Industries Ltd., Osaka, Japan). Plasma sphingomyelin was measured as described previously (JBC13). PC concentration was obtained by subtracting SM from total phospholipid concentration. Apolipoprotein analysis using SDS-PAGE was also done as describedpreviously (JBC 14).

[4] = system: apoE KO mice; assay: Plasma sphingolipid analysis by mass spectrometry after myriocin administration; format: in vivo, mouse; conditions: for Plasma C14Cer / Plasma C16Cer / Plasma C18:1Cer / Plasma C18Cer / Plasma C20Cer / Plasma C24:1Cer / Plasma C24Cer / Plasma DHSph / Plasma DHSph-1P / Plasma S1P / Plasma Sph: myriocin 0.3 mg/kg i.p. 8 weeks, n=7
Procedure: as §1
Plasma sphingosinebases, sphingoid base-1-phosphates, and ceramide species were performed on a Thermo Finnigan TSQ 7000 triple quadrupole mass spectrometer operating in a multiple reaction monitoring, positive ionization mode at the Department of Biochemistry and Molecular Biology, Medical University of South Carolina, on a fee-for-service basis. Briefly, 250 μl of mouse plasma was fortified with the internal standards (IC17 base D-erythro-sphingosine (17C-Sph), C17 sphingosine-1-phosphate (17C—S1P), N-palmitoyl-D-erythro-C13 sphingosine (13C-Cer), and heptadecanoyl-D-erythro-sphingosine (C17-Cer)) and extracted with ethyl acetate/iso-propanol/water (60:30:10) (v/v) solvent system. After evaporation and reconstitution in 100 μl of methanol, samples were injected onto the Surveyor/TSQ 7000 liquid chromatography/mass spectrometry system, and gradient was eluted from a BDSHypersil C8, 150×3.2-mm, 3-μm particle size column with a 1 mM methanolic ammonium formate, 2 mM aqueous ammonium formate mobile phase system. Peaks corresponding to the target analytes and internal standards were collected and processed using the Xcalibur software system. Quantitative analysis was based on the calibration curves generated by spiking an artificial matrix with the known amounts of the target analyte synthetic standards and an equal amount of the internal standards. The target analyte/internal standard peak area ratios were plotted against analyte concentration. The target analyte/internal standard peak area ratios from the samples were similarly normalized to their respective internal standards and compared with the calibration curves using a linear regression model.

[5] = system: apoE KO mice; assay: FPLC lipid distribution among lipoproteins with or without myriocin; format: in vivo, mouse
Procedure: Aliquots of 200 μl of pooled plasma from mice (n=7) with or without myriocin treatment were analyzed by FPLC (V, VLDL; L, LDL; and H, HDL). An aliquot of each fraction was used for the determination of SM (FIG. 6A), PC (FIG. 6B), and cholesterol (FIG. 6C).
Aliquots of 200 μl of pooled plasma from mice (n=7) with or without myriocin treatment were analyzed by FPLC (V, VLDL; L, LDL; and H, HDL). An aliquot of each fraction was used for the determination of SM (FIG. 7A), PC (FIG. 7B), and cholesterol (FIG. 7C).
as §2
To investigate the lipid distribution among the lipoproteins with or without myriocin treatment, FPLC was utilized to fractionize lipoproteins and measured SM, PL, and cholesterol in each fraction.

[6] = system: apoE KO mice; assay: Apolipoprotein analysis using SDS-PAGE; format: in vivo, mouse
Procedure: as §2

[7] = system: apoE KO mice; assay: Atherosclerotic lesions: aorta root assay and en face assay; format: in vivo, mouse; conditions: 2 months of myriocin administration, p<0.01; for reduction in mean whole aortic lesion areas compared with controls: en face; for reduction in mean proximal aortic lesion areas compared with controls: root assay
Text: This set of pictures is representative of seven sets. FIGS. 8B and 8C depict quantification of atherosclerotic lesions in the proximal aorta by root assay in mice fed a chow diet (FIG. 8B) or a high fat, high cholesterol diet (FIG. 8C). The procedure for root assay was described previously (JBC 15). FIGS. 8D and 8E depict quantification of atherosclerotic lesions in whole aorta by en face analysis in mice fed a chow diet (FIG. 8D) or a high fat, high cholesterol diet (FIG. 8E). The procedure for en face analysis was described previously (JBC 16). Values are mean ±S.D. *, p<0.001; n=7.
At the end of the myriocin treatment period, the mice were sacrificed, and the hearts and proximal aortas as well as the whole aortas were removed, dissected, and photographed. An aorta root assay and an en face assay were performed as described previously (JBC 15, 16).

[8] = system: T-lymphocyte populations; conditions: myriocin 1 mg/kg (but not 0.3 mg/kg); cited from earlier work
[9] = cited from earlier work
[10] = system: apoE KO mice; conditions: oral myriocin, high cholesterol diet; cited from earlier work
[11] = target: mouse Sptlc2 (serine palmitoyl-CoA transferase subunit 2) (mouse) (UniProt P97363); assay: cell-based or functional assay
[12] = system: CIP.choline-phosphate cytidylyltransferase (CT); conditions: administration of L-cycloserine; cited from earlier work
[13] = chow diet, myriocin 0.3 mg/kg i.p. 8 weeks
[14] = high fat diet, myriocin 0.3 mg/kg i.p. 8 weeks
[15] = high fat, high cholesterol (Western type) diet 8 weeks
[16] = high fat, high cholesterol diet
[17] = chow diet, pooled plasma n=7, FIG. 6
[18] = high fat diet, pooled plasma n=7, FIG. 7

decrease in Sptlc2 protein mass in Sptlc1+/- mouse liver against WT (Western blot of liver homogenate) [1]: 53%
Molecule: mouse Sptlc2 (serine palmitoyl-CoA transferase subunit 2) (from UniProt P97363 1-560) (enzyme)

Molecule: CCCCCCC(=O)CCCCCC/C=C/C[C@@H](O)[C@H](O)[C@@](N)(CO)C(=O)O [Myriocin, myriocin]
less SPT activity in the liver than the controls [2]: 50% | total cholesterol levels, change after myriocin ([3]; chow diet): not significantly changed | triglyceride levels, change after myriocin ([3]; chow diet): not significantly changed | PC/SM [3, 13]: 12.1 ± 0.2a | Plasma Chol [3, 13]: 660 ± 105 mg/dL | Plasma TG [3, 13]: 75 ± 19 mg/dL | Plasma PC [3, 13]: 399 ± 59^a mg/dl | Plasma SM ([3]; chow diet, myriocin 0.3 mg/kg i.p. every other day 8 weeks, mean ± S.D.): 33 ± 3^a mg/dl | PC/SM ratio increased ([3]; chow diet): 317% | plasma PC levels increased ([3]; chow diet): 91% | plasma SM levels decreased ([3]; chow diet, p<0.001): 54% | PC/SM [3, 14]: 16.9 | Plasma Chol [3, 14]: 1807 ± 342 mg/dL | Plasma TG [3, 14]: 107 ± 27 mg/dL | Plasma SM [3, 14]: 47 ± 14^a mg/dl | Plasma PC [3, 14]: 795 ± 97^a mg/dl | plasma SM levels decreased [3, 15]: 59% | PC/SM ratio increased [3, 15]: 380% | plasma PC levels increased [3, 15]: 100% | total cholesterol levels, change after myriocin [3, 16]: not significantly changed | triglyceride levels, change after myriocin [3, 16]: not significantly changed | plasma Cer, change after myriocin treatment ([4]; chow diet): significantly decreased | plasma S1P, change after myriocin treatment ([4]; chow diet): significantly decreased | plasma Sph, change after myriocin treatment ([4]; chow diet): significantly decreased | Plasma C14Cer ([4]; chow diet): 12 ± 2^a nM | Plasma C16Cer ([4]; chow diet): 11 ± 3^a nM | Plasma C18:1Cer ([4]; chow diet): 2 ± 1^a nM | Plasma C18Cer ([4]; chow diet): 51 ± 8^a nM | Plasma C20Cer ([4]; chow diet): 35 ± 9^a nM | Plasma C24:1Cer ([4]; chow diet): 854 ± 144^a nM | Plasma C24Cer ([4]; chow diet): 1321 ± 22^a nM | Plasma DHSph ([4]; chow diet): 30 ± 3 nM | Plasma DHSph-1P ([4]; chow diet): 9 ± 5^a nM | Plasma S1P ([4]; chow diet): 58 ± 9^a nM | Plasma Sph ([4]; chow diet): 127 ± 8^a nM | Plasma S1P ([4]; chow diet, listed as myriocin): < 100 nM | Plasma C14Cer ([4]; high fat diet): 20 ± 2 nM | Plasma C16Cer ([4]; high fat diet): 12 ± 6^a nM | Plasma C18:1Cer ([4]; high fat diet): 9 ± 1^a nM | Plasma C18Cer ([4]; high fat diet): 36 ± 14^a nM | Plasma C20Cer ([4]; high fat diet): 45 ± 11^a nM | Plasma C24:1Cer ([4]; high fat diet): 1009 ± 134^a nM | Plasma C24Cer ([4]; high fat diet): 1708 ± 426^a nM | Plasma DHSph ([4]; high fat diet): 20 ± 1^a nM | Plasma DHSph-1P ([4]; high fat diet): 10 ± 2^a nM | Plasma S1P ([4]; high fat diet): 42 ± 19^a nM | Plasma Sph ([4]; high fat diet): 114 ± 19^a nM | plasma Cer, change after myriocin treatment [4, 16]: dramatically decreased | plasma S1P, change after myriocin treatment [4, 16]: dramatically decreased | plasma Sph, change after myriocin treatment [4, 16]: dramatically decreased | PC in FPLC lipoprotein fractions [5, 17]: increased | SM in FPLC lipoprotein fractions [5, 17]: significantly decreased | cholesterol in FPLC lipoprotein fractions [5, 17]: no significant effect | PC in FPLC lipoprotein fractions [5, 18]: increased | SM in FPLC lipoprotein fractions [5, 18]: dramatically decreased | cholesterol in FPLC lipoprotein fractions [5, 18]: no effect | levels of apolipoproteins, including apoB100, apoB48, and apoA-I ([6]; chow diet): no significant changes | levels of apolipoproteins, including, apoB48, and apoA-I [6, 16]: no significant changes | reduction in mean whole aortic lesion areas compared with controls ([7]; Western type diet): 37% | reduction in mean proximal aortic lesion areas compared with controls ([7]; Western type diet): 39% | reduction in mean whole aortic lesion areas compared with controls ([7]; chow diet): 36% | reduction in mean proximal aortic lesion areas compared with controls ([7]; chow diet): 42% | effect on T-lymphocyte populations in mice [8]: reduces T-lymphocyte populations | toxicity of oral administration [9]: serious gastrointestinal toxicity | atherosclerotic lesions [10]: dramatic reduction | plasma SM levels [10]: significant reduction | plasma cholesterol levels [10]: significant reduction

decrease in Sptlc1 protein mass in Sptlc2+/- mouse liver against WT (Western blot of liver homogenate) [11]: 70%
Molecule: mouse Sptlc1 (serine palmitoyl-CoA transferase subunit 1) (from UniProt O35704 1-473) (enzyme)

Molecule: N[C@@H]1CON=C1O [L-cycloserine]
stimulation of CT activity [12]: 74%
